This passage reports EC50 and IC50 results from patent publication US20240116946A1 (Gilead Sciences, Inc., priority 2022, published 2024).

For experiment [1], the system named is SARS-CoV-2-NLuc. Nature of the experiment: microbe, parasite or virus in culture. Format: cell-based, SARS Coronavirus 2.
Experiment [2] has as its target recombinant SARS-CoV-2 Main protease (Mpro) (Severe acute respiratory syndrome coronavirus 2 (2019-nCoV) (SARS-CoV-2), UniProt P0DTD1). Nature of the experiment: Cov Mpro Biochemical IC50 Assay. The conditions noted are these: read-out: MPro IC50.
Setting [3] is: Severe acute respiratory syndrome coronavirus, 48 h, read-out: MPro EC50.
[4] abbreviates: recombinant SARS-CoV-2 Mpro 7.5 nM, fluorogenic peptide substrate 40 μM.
Setting [5] is: recombinant SARS-CoV-2 Mpro, fluorogenic peptide substrate.
[6] abbreviates: Severe acute respiratory syndrome coronavirus, 48 h; read-out: MPro EC50.

Read-outs that look alike come from different tables or passages of the source. A value given as a limit tells only on which side of the number the result lay.

As usually defined, the EC50 is the concentration needed to bring the measured effect to its halfway point. A word on the IC50: it is the concentration needed to halve the response being measured. For the compound `N#Cc1ccccc1-c1cc2[nH]c(=O)n(-c3cncc4ccccc34)c(=O)c2s1` [Example 530, 2-(3-(isoquinolin-4-yl)-2,4-dioxo-1,2,3,4-tetrahydrothieno[3,2-d]pyrimidin-6-yl)benzonitrile], the EC50 in experiment [1] (setting [3]) turned out to be 84.3 nM. In addition, the IC50 in experiment [2] (setting [4]) came to 12 nM.
For `COc1ccc(Cl)c(-c2cc3[nH]c(=O)n(-c4cncc5cnn(CC(F)(F)F)c45)c(=O)c3s2)c1` [Example 500], in that order: 42.6 nM and 9.12 nM.
As to `COc1ccc(Cl)c(-c2cc3[nH]c(=O)n(-c4cncc5ccc(N6CC(F)(F)OC(F)(F)C6)cc45)c(=O)c3s2)c1` [Example 229], the EC50 in experiment [1] (setting [3]) came to 28.9 nM. In addition, the IC50 in experiment [2] (setting [5]) stood at 22.5 nM.
As to `COc1cc(-c2cc3[nH]c(=O)n(-c4cncc5nnn(C)c45)c(=O)c3s2)c(Cl)cc1F` [Example 749], the EC50 in experiment [1] (setting [3]) is 32.6 nM. In addition, the IC50 in experiment [2] (setting [4]) is 7.35 nM.
Consider `Cn1nnc2cncc(-n3c(=O)c4sc(-c5ccc(F)cc5Cl)cc4n(CCC#N)c3=O)c21` [Example 773, 3-[6-(2-chloro-4-fluoro-phenyl)-3-(1-methyltriazolo[4,5-c]pyridin-7-yl)-2,4-dioxo-thieno[3,2-d]pyrimidin-1-yl]propanenitrile], for which the concentration for a half-maximal effect (EC50) in experiment [1] (setting [3]) was found to be 67.5 nM. In addition, the IC50 in experiment [2] (setting [4]) is 25.5 nM.
In the case of `COc1cc(-c2cc3c(s2)c(=O)n(-c2cc(C)cnc2F)c(=O)n3CCC#N)c(Cl)cc1F` [Example 770], the EC50 in experiment [1] (setting [6]) turned out to be 4.8 nM. The 50% inhibitory concentration (IC50) in experiment [2] (setting [4]) amounted to 6.12 nM.
Regarding `O=C1COc2ccc(-c3cccc(Cl)c3-c3ccc4c(=O)n(-c5cncc6ccccc56)c(=O)[nH]c4c3)cc2N1` [Example 304], the EC50 in experiment [1] (setting [3]) worked out at 20.5 nM. Further, the half-maximal inhibitory concentration (IC50) in experiment [2] (setting [5]) turned out to be 11.5 nM.
Consider `O=c1[nH]c2cc(-c3ccccc3Cl)sc2c(=O)n1-c1cncc2ccc(N3CCC(O)(C(F)(F)F)CC3)cc12` [Example 427], for which the EC50 in experiment [1] (setting [3]) stood at 24 nM. The 50% inhibitory concentration (IC50) in experiment [2] (setting [4]) was determined as 15.6 nM.
Regarding `COc1ccc(Cl)c(-c2ccc3c(=O)n(-c4cncc(C5CC5)c4)c(=O)[nH]c3c2)c1` [Example 191], the EC50 in experiment [1] (setting [3]) came out at 91 nM. In addition, in experiment [2] (setting [5]), the IC50 came out at 73.8 nM.
For `Cc1c(-c2cccc(Cl)c2-c2ccc3c(=O)n(-c4cncc5ccccc45)c(=O)[nH]c3c2)cn2ncnc2c1C` [Example 233], in that order: 26.8 nM and 12.3 nM.
On to `COc1cc(-c2cc3c(s2)c(=O)n(-c2cncc(C)c2)c(=O)n3CCC#N)c(Cl)cc1F` [Example 981], for which the EC50 in experiment [1] (setting [3]) was determined as 1.39 nM. In experiment [2] (setting [4]), the IC50 was 1.38 nM.
Regarding `N#CCCn1c(=O)n(-c2cncc3ccccc23)c(=O)c2sc(-c3ccccc3C#N)cc21` (single isomer, unassigned) [Example 963, 2-(1-(2-cyanoethyl)-3-(isoquinolin-4-yl)-2,4-dioxo-1,2,3,4-tetrahydrothieno[3,2-d]pyrimidin-6-yl)benzonitrile], in experiment [1] (read-out: MPro EC50), the EC50 turned out to be 14.6 nM. For the same compound, the half-maximal inhibitory concentration (IC50) in experiment [2] (setting [4]) was 7.92 nM.
Consider `COc1cc(-c2cc3[nH]c(=O)n(-c4cncc5ccccc45)c(=O)c3s2)c(C)cn1` [Example 719], for which the EC50 in experiment [1] (setting [3]) turned out to be 938 nM. Further, in experiment [2] (setting [4]), the IC50 was determined as 364 nM.
For the compound `Cn1cc(-c2cccc(Cl)c2-c2ccc3c(=O)n(-c4cncc5ccccc45)c(=O)[nH]c3c2)c(C#N)n1` [Example 267], in experiment [1] (setting [3]), the half-maximal effective concentration (EC50) came to 35.5 nM. For the same compound, the IC50 in experiment [2] (setting [5]) came out at 24.1 nM.
On the same counts, the results for `COc1cc2c(=O)n(-c3cncc4ccccc34)c(=O)[nH]c2cc1-c1ccccc1Cl` [Example 83] are 122 nM and 109 nM.
Take `COc1ccc(Cl)c(-c2cc3[nH]c(=O)n(-c4cncc5ccsc45)c(=O)c3s2)c1` [Example 480]: in experiment [1] (setting [3]), the EC50 came out at 10.2 nM. The half-maximal inhibitory concentration (IC50) in experiment [2] (setting [4]) came out at 4.97 nM.
Turning to `COc1ccc(Cl)c(-c2cc3[nH]c(=O)n(-c4cncc5ccc(N6CCN(S(C)(=O)=O)CC6)cc45)c(=O)c3s2)c1` [Example 425], the EC50 in experiment [1] (setting [6]) was 30 nM. Besides, the IC50 in experiment [2] (setting [4]) is 7.69 nM.
Consider `COc1cc(-c2cc3c(s2)c(=O)n(-c2cnccc2C(F)(F)F)c(=O)n3CCC#N)c(Cl)cc1F` [Example 861], for which the 50% effective concentration (EC50) in experiment [1] (setting [3]) turned out to be 68.9 nM. In experiment [2] (setting [4]), the IC50 stood at 35.8 nM.
As for `N#CCCn1c(=O)n(-c2cncc3ccccc23)c(=O)c2sc(-c3c(Cl)cccc3-c3cncc(C#N)c3)cc21` [Example 935], the EC50 in experiment [1] (setting [3]) came to 24.6 nM. For the same compound, in experiment [2] (setting [4]), the IC50 amounted to 14.3 nM.
For `COc1cc(-c2cc3c(s2)c(=O)n(-c2cncc4ccccc24)c(=O)n3[C@H]2C[C@H](C#N)C2)c(Cl)cc1F` [Example 695], in that order: 45.9 nM and 16.2 nM.
For `COc1cnc(Cl)c(-c2cc3c(s2)c(=O)n(-c2cncc4cnn(C)c24)c(=O)n3CCC#N)c1` (single isomer, unassigned) [Example 1090, 3-(6-(2-chloro-5-methoxypyridin-3-yl)-3-(1-methyl-1H-pyrazolo[4,3-c]pyridin-7-yl)-2,4-dioxo-3,4-dihydrothieno[3,2-d]pyrimidin-1(2H)-yl)propanenitrile], in experiment [1] (read-out: MPro EC50), the EC50 came to 5.22 nM. In addition, the IC50 in experiment [2] (setting [4]) was 1.5 nM.
In the case of `COc1cc(-c2cc3[nH]c(=O)n(-c4cncc5ccc(=O)n(C)c45)c(=O)c3s2)c(Cl)cc1F` [Example 712], the EC50 in experiment [1] (setting [3]) was 12.4 nM. Besides, in experiment [2] (setting [4]), the IC50 was found to be 6.85 nM.
With `COc1ccc(Cl)c(-c2ccc3c(=O)n(-c4cncc5ccccc45)c(=O)[nH]c3c2)c1` [Example 92, 7-(2-chloro-5-methoxy-phenyl)-3-(4-isoquinolyl)-1H-quinazoline-2,4-dione], the EC50 in experiment [1] (setting [3]) turned out to be 37.5 nM. In addition, the IC50 in experiment [2] (setting [5]) was found to be 33.9 nM.
With `COc1cc(-c2cc3c(s2)c(=O)n(-c2cncc(OC(F)F)c2)c(=O)n3CCC#N)c(Cl)cc1F` [Example 872], in experiment [1] (setting [3]), the EC50 was 37.3 nM. Also, in experiment [2] (setting [4]), the IC50 is 8.39 nM.
On the same counts, the results for `COc1ccc(Cl)c(-c2cc3[nH]c(=O)n(-c4cncc5ccoc45)c(=O)c3s2)c1` [Example 493] are 33.5 nM and 7.94 nM.
With `O=c1[nH]c2cc(-c3ccccc3Cl)cnc2c(=O)n1-c1cncc2ccccc12` [Example 30], in experiment [1] (setting [3]), the half-maximal effective concentration (EC50) worked out at 380 nM. Moreover, in experiment [2] (setting [5]), the IC50 was determined as 17.6 nM.
`Cn1ncc2cncc(-n3c(=O)c4sc(-c5cc(F)ccc5Cl)cc4n(CCC#N)c3=O)c21` [Example 789]: the EC50 in experiment [1] (setting [3]) was 4.8 nM. Further, the concentration for half-maximal inhibition (IC50) in experiment [2] (setting [4]) came to 5.82 nM.
For `O=c1[nH]c2cc(-c3ccccc3Cl)sc2c(=O)n1-c1cnccc1C1CC1` [Example 130, 6-(2-chlorophenyl)-3-(4-cyclopropylpyridin-3-yl)thieno[3,2-d]pyrimidine-2,4(1H,3H)-dione], the EC50 in experiment [1] (setting [3]) turned out to be 147 nM. The IC50 in experiment [2] (setting [5]) is 73.1 nM.
`COc1ccc(Cl)c(-c2ccc3c(=O)n(-c4cncc5ccccc45)c(=O)[nH]c3c2)c1` (single isomer, unassigned) [Example 476, 7-(2-chloro-5-methoxy-phenyl)-3-(4-isoquinolyl)-1H-quinazoline-2,4-dione]: the EC50 in experiment [1] (read-out: MPro EC50) was 259 nM. Further, in experiment [2] (setting [4]), the IC50 worked out at 258 nM.
Turning to `COc1cc(-c2cccc(Cl)c2-c2ccc3c(=O)n(-c4cncc5ccccc45)c(=O)[nH]c3c2)cn2ncnc12` [Example 143], in experiment [1] (setting [6]), the EC50 amounted to 79.2 nM. For the same compound, in experiment [2] (setting [5]), the IC50 worked out at 10.8 nM.
For `O=c1[nH]c2c(Cl)c(-c3ccccc3Cl)ccc2c(=O)n1-c1cncc2ccccc12` [Example 79], the EC50 in experiment [1] (setting [3]) came out at 12100 nM. Further, the IC50 in experiment [2] (setting [5]) was 14000 nM.
As to `COc1cc(-c2cc3[nH]c(=O)n(-c4cncc5cnn(C6CC6)c45)c(=O)c3s2)c(Cl)cc1F` [Example 975, 6-(2-chloro-4-fluoro-5-methoxy-phenyl)-3-(1-cyclopropylpyrazolo[4,3-c]pyridin-7-yl)-1H-thieno[3,2-d]pyrimidine-2,4-dione], in experiment [1] (setting [3]), the EC50 stood at 10.3 nM. The IC50 in experiment [2] (setting [4]) was determined as 6.33 nM.
`O=c1[nH]c2cc(-c3c(Cl)cccc3-c3cnn4c3OCCC4)ccc2c(=O)n1-c1cncc2ccccc12` [Example 325]: in experiment [1] (setting [3]), the EC50 worked out at 27.9 nM. The IC50 in experiment [2] (setting [5]) came out at 15.8 nM.
As to `COc1cc(-c2cc3[nH]c(=O)n(-c4cncc5nn(CC(F)(F)F)c(C)c45)c(=O)c3s2)c(Cl)cc1F` [Example 740], the EC50 in experiment [1] (setting [3]) is 103 nM. Also, the concentration for half-maximal inhibition (IC50) in experiment [2] (setting [4]) worked out at 47.9 nM.
For `COc1cc(-c2cc3c(s2)c(=O)n(-c2cncc4c(F)cccc24)c(=O)n3CCC#N)c(Cl)cc1F` [Example 950], in that order: 11.8 nM and 4.5 nM.
Take `COc1cc(-c2cc3c(s2)c(=O)n(-c2nncc4c(C)nn(C)c24)c(=O)n3CCC#N)c(Cl)cc1F` [Example 892]: the EC50 in experiment [1] (setting [3]) worked out at 32.9 nM. For the same compound, in experiment [2] (setting [4]), the half-maximal inhibitory concentration (IC50) came out at 13.5 nM.
For `COc1ccc(Cl)c(-c2cc3[nH]c(=O)n(-c4cncc5ccc(N6CCn7cc(C(F)(F)F)nc7C6)cc45)c(=O)c3s2)c1` [Example 610], in that order: 13.9 nM and under 2.54 nM.
For the compound `Cc1noc(C)c1-c1cc2[nH]c(=O)n(-c3cncc4ccccc34)c(=O)c2s1` [Example 362], in experiment [1] (setting [3]), the EC50 was 201 nM. Further, in experiment [2] (setting [5]), the IC50 was found to be 35.6 nM.
Consider `O=c1[nH]c2cc(-c3cccc(Cl)c3)ccc2c(=O)n1-c1cncc2ccccc12` [Example 56], for which the EC50 in experiment [1] (setting [3]) turned out to be 3940 nM. For the same compound, the IC50 in experiment [2] (setting [5]) was 2750 nM.
For `COc1cc(-c2cc3c(s2)c(=O)n(-c2cncc4[nH]nc(C)c24)c(=O)n3CCC#N)c(Cl)cc1F` (single isomer, unassigned) [Example 960, 3-(6-(2-chloro-4-fluoro-5-methoxyphenyl)-3-(3-methyl-1H-pyrazolo[3,4-c]pyridin-4-yl)-2,4-dioxo-3,4-dihydrothieno[3,2-d]pyrimidin-1(2H)-yl)propanenitrile], the EC50 in experiment [1] (read-out: MPro EC50) turned out to be 163 nM. For the same compound, the IC50 in experiment [2] (setting [4]) came out at 79.6 nM.
For the compound `NC(=O)c1ccccc1-c1cc2[nH]c(=O)n(-c3cncc4ccccc34)c(=O)c2cc1F` [Example 68], the EC50 in experiment [1] (setting [3]) worked out at 43800 nM. The IC50 in experiment [2] (setting [5]) is 1010 nM.
For the compound `O=c1[nH]c2cc(-c3c(Cl)cccc3-c3cn4ncnc4c4c3CCC4)sc2c(=O)n1-c1cncc2ccccc12` [Example 520], the EC50 in experiment [1] (setting [3]) came out at 14.6 nM. For the same compound, the IC50 in experiment [2] (setting [4]) is under 2.54 nM.
